Experimental findings from US20260266848A1, “COMPOSITIONS AND METHODS FOR DIAGNOSING AND TREATING DYSTONIA” (Duke University, priority 2023, published 2026) are described below.

The experiment has as its system DYT1 MEF secreted EVs. Put plainly: Small RNAseq of miRNAs in EVs secreted by DYT1 vs WT MEFs, ritonavir 24 h. The class given is cell-based, mouse. The following applies: 24 hour culture exposure. The method, then:
RNA was isolated from the DYT1 vs WT mouse embryonic fibroblast (MEF) secreted EVs, using the same cultures used in proteomic experiments. Small RNA sequencing was performed using a Illumina Novoseq 500. […] The number of independent culture preparations per genotype was three (N=3). The EV fraction was divided and separately analyzed for proteins and RNAs. […] Genotype-disrupted miRNAs and genotype-directionality as identified in FIG. 6A are indicated by blue and red dots in FIG. 6B. […] Blue and red data points of FIG. 6C identify genotype effect and directionality originally as in FIG. 6A.

Turning to `CC(C)c1nc(CN(C)C(=O)N[C@H](C(=O)N[C@@H](Cc2ccccc2)C[C@H](O)[C@H](Cc2ccccc2)NC(=O)OCc2cncs2)C(C)C)cs1` [ritonavir], the “effect on genotype-disrupted subset of EV miRNAs” value was “strong correlation of corrective effects”. For the setting “listed as Ritonavir”, the “effect on genotype-disrupted subset of EV miRNAs” value is reported as “stronger correlation of corrective effects”.
